# Results: publication PMC8286840, “Identifying SARS-CoV-2 antiviral compounds by screening for small molecule inhibitors of Nsp3 papain-like protease” (Biochemical Journal, 2021)
# Structures can show the parent of a compound that is named as a salt. Where two headings read alike, the source gives them in different places.
# Experiments:
# [1] = target: T1, SARS-CoV-2 PLpro (nsp3 1564–1878) (Severe acute respiratory syndrome coronavirus 2, UniProt P0DTD1); test: biochemical; design: FRET-quenched peptide (Pro3) cleavage by PLpro, 10 min pre-incubation, slope over 20 min, normalised to no-compound control; conditions: read-out: % of control remaining
# [2] = target: T1, SARS-CoV-2 PLpro (nsp3 1564–1878); test: biochemical; design: FRET-quenched peptide (Pro3) cleavage by PLpro, 10 min pre-incubation, slope over 20 min, normalised to no-compound control; conditions: read-out: % of control remaining; remark: listed apart in the source
compound,measurement,setting,value
NC1=N[C@@]2(c3cc(NC(=O)c4ccc(F)cn4)ccc3F)COC[C@H]2CS1 [LY2886721],remaining activity at 1.25 µM,"[1]; Well no.=4774, low concentration screen",99.9%
same,remaining activity at 3.75 µM,"[2]; Well no.=4774, high concentration screen",102%
CN(C(=O)c1ccc(F)cc1C(F)(F)F)C1CCN(c2nnc(-c3ccnn3C)c3ccccc23)CC1 [LY2940680],remaining activity at 1.25 µM,"[1]; Well no.=4890, low concentration screen",88.9%
same,remaining activity at 3.75 µM,"[2]; Well no.=4890, high concentration screen",82.4%
O=c1cc(N2CCOCC2)oc2c(-c3ccccc3)cccc12 [LY 294002 hydrochloride - 2-(4-Morpholinyl)-8-phenyl-4H-1-benzopyran-4-one hydrochloride],remaining activity at 1.25 µM,"[1]; Well no.=2344, low concentration screen",97.3%
same,remaining activity at 3.75 µM,"[2]; Well no.=2344, high concentration screen",98.8%
O=c1cc(N2CCOCC2)oc2c(-c3ccccc3)cccc12 [LY 294002],remaining activity at 1.25 µM,"[1]; Well no.=2465, low concentration screen",101%
same,remaining activity at 3.75 µM,"[2]; Well no.=2465, high concentration screen",102%
O=c1cc(N2CCNCC2)oc2c(-c3ccccc3)cccc12 [LY 303511],remaining activity at 1.25 µM,"[1]; Well no.=2467, low concentration screen",102%
same,remaining activity at 3.75 µM,"[2]; Well no.=2467, high concentration screen",106%
CN(C)[C@@H]1CCc2[nH]c3ccc(NC(=O)c4ccc(F)cc4)cc3c2C1 [LY 344864],remaining activity at 1.25 µM,"[1]; Well no.=7289, low concentration screen",93.4%
same,remaining activity at 3.75 µM,"[2]; Well no.=7289, high concentration screen",91.2%
c1ccc(-c2[nH]ncc2-c2ccnc3ccccc23)nc1 [LY 364947 - 4-[3-(2-Pyridinyl)-1H-pyrazol-4-yl]-quinoline],remaining activity at 1.25 µM,"[1]; Well no.=2622, low concentration screen",96.3%
same,remaining activity at 3.75 µM,"[2]; Well no.=2622, high concentration screen",101%
"CC(O)C(C)OC(=O)[C@@H]1C[C@@H]2c3cccc4c3c(cn4C(C)C)C[C@H]2N(C)C1 (stereo partly drawn) [LY-53,857 maleate]",remaining activity at 1.25 µM,"[1]; Well no.=772, low concentration screen",99.8%
same,remaining activity at 3.75 µM,"[2]; Well no.=772, high concentration screen",97.2%
"CCCc1c(OCCCCc2nnn[nH]2)ccc(C(C)=O)c1O [LY-171,883]",remaining activity at 1.25 µM,"[1]; Well no.=835, low concentration screen",104%
same,remaining activity at 3.75 µM,"[2]; Well no.=835, high concentration screen",106%
"CN1C2CCC1CC(NC(=O)c1nn(C)c3ccccc13)C2 (stereo not drawn) [LY-278,584 maleate]",remaining activity at 1.25 µM,[1],98.8%
same,remaining activity at 3.75 µM,[2],101%
"O=c1cc(N2CCOCC2)oc2c(-c3ccccc3)cccc12 [LY-294,002 hydrochloride]",remaining activity at 1.25 µM,"[1]; Well no.=1077, low concentration screen",93.7%
same,remaining activity at 3.75 µM,"[2]; Well no.=1077, high concentration screen",90.8%
"O=S1(=O)N(CCN2CC=C(c3c[nH]c4cc(F)ccc34)CC2)c2cccc3c2N1CCC3 [LY-367,265]",remaining activity at 1.25 µM,"[1]; Well no.=785, low concentration screen",100%
same,remaining activity at 3.75 µM,"[2]; Well no.=785, high concentration screen",103%
CCCc1c(OCCCCc2nnn[nH]2)ccc(C(C)=O)c1O [LY-171883],remaining activity at 1.25 µM,"[1]; Well no.=4522, low concentration screen",98%
same,remaining activity at 3.75 µM,"[2]; Well no.=4522, high concentration screen",102%
CC(CCc1ccccc1)NCC(O)c1ccc(O)c(C(N)=O)c1 (stereo not drawn) [Labetalol (hydrochloride)],remaining activity at 1.25 µM,"[1]; Well no.=8287, low concentration screen",99.3%
same,remaining activity at 3.75 µM,"[2]; Well no.=8287, high concentration screen",94.7%
CC(CCc1ccccc1)NCC(O)c1ccc(O)c(C(N)=O)c1 (stereo not drawn) [Labetalol hydrochloride],remaining activity at 1.25 µM,"[1]; Well no.=975, low concentration screen",102%
same,remaining activity at 3.75 µM,"[2]; Well no.=975, high concentration screen",101%
CCOC(=O)C1=C(C)NC(C)=C(C(=O)OCC)C1c1ccccc1/C=C/C(=O)OC(C)(C)C [Lacidipine],remaining activity at 1.25 µM,"[1]; Well no.=1798, low concentration screen",99.9%
same,remaining activity at 3.75 µM,"[2]; Well no.=1798, high concentration screen",100%
O=C(C[S+]([O-])Cc1ccco1)NC/C=C\COc1cc(CN2CCCCC2)ccn1 (stereo not drawn) [Lafutidine],remaining activity at 1.25 µM,"[1]; Well no.=4722, low concentration screen",93.3%
same,remaining activity at 1.25 µM,"[1]; Well no.=7581, low concentration screen",90.1%
same,remaining activity at 3.75 µM,"[2]; Well no.=4722, high concentration screen",95%
same,remaining activity at 3.75 µM,"[2]; Well no.=7581, high concentration screen",90.4%
C[C@@H]1CC[C@H]2[C@](C)(CO)[C@@H](O)CC[C@]2(C)[C@@]12CC[C@@](CO)(CCO)O2 [Lagochiline],remaining activity at 1.25 µM,"[1]; Well no.=3651, low concentration screen",100%
same,remaining activity at 3.75 µM,"[2]; Well no.=3651, high concentration screen",101%
Nc1ccn([C@@H]2CS[C@H](CO)O2)c(=O)n1 [Lamivudine],remaining activity at 1.25 µM,"[1]; Well no.=8142, low concentration screen",100%
same,remaining activity at 3.75 µM,"[2]; Well no.=8142, high concentration screen",98.2%
Nc1nnc(-c2cccc(Cl)c2Cl)c(N)n1 [Lamotrigine],remaining activity at 1.25 µM,"[1]; Well no.=977, low concentration screen",99.1%
same,remaining activity at 1.25 µM,"[1]; Well no.=1832, low concentration screen",95.1%
same,remaining activity at 3.75 µM,"[2]; Well no.=977, high concentration screen",101%
same,remaining activity at 3.75 µM,"[2]; Well no.=1832, high concentration screen",92.9%
Cc1c(OCC(F)(F)F)ccnc1C[S+]([O-])c1nc2ccccc2[nH]1 (stereo not drawn) [Lansoprazole],remaining activity at 1.25 µM,"[1]; Well no.=1075, low concentration screen",98.5%
same,remaining activity at 3.75 µM,"[2]; Well no.=1075, high concentration screen",98.7%
CS(=O)(=O)CCNCc1ccc(-c2ccc3ncnc(Nc4ccc(OCc5cccc(F)c5)c(Cl)c4)c3c2)o1 [Lapatinib ditosylate],remaining activity at 1.25 µM,"[1]; Well no.=1714, low concentration screen",105%
same,remaining activity at 3.75 µM,"[2]; Well no.=1714, high concentration screen",105%
CS(=O)(=O)CCNCc1ccc(-c2ccc3ncnc(Nc4ccc(OCc5cccc(F)c5)c(Cl)c4)c3c2)o1 [Lapatinib],remaining activity at 1.25 µM,"[1]; Well no.=2983, low concentration screen",94.8%
same,remaining activity at 3.75 µM,"[2]; Well no.=2983, high concentration screen",92.8%
C/C=C(/C)C(=O)O[C@H]1CC(C)=CC(=O)[C@@]2(C)CC[C@@](O)(C(C)C)[C@H]12 [Lapidin],remaining activity at 1.25 µM,"[1]; Well no.=3159, low concentration screen",105%
same,remaining activity at 3.75 µM,"[2]; Well no.=3159, high concentration screen",105%
CCN1C[C@]2(OC(=O)c3ccccc3NC(C)=O)CC[C@H](OC)[C@@]34[C@@H]2C[C@@H]([C@@H]13)[C@@]1(O)C[C@H](OC)[C@H]2C[C@@H]4[C@]1(O)[C@H]2OC [Lappaconitine],remaining activity at 1.25 µM,"[1]; Well no.=3653, low concentration screen",103%
same,remaining activity at 3.75 µM,"[2]; Well no.=3653, high concentration screen",105%
CCN(C(=O)c1c(O)c2c(Cl)cccc2n(C)c1=O)c1ccccc1 [Laquinimod (ABR-215062)],remaining activity at 1.25 µM,"[1]; Well no.=4745, low concentration screen",105%
same,remaining activity at 3.75 µM,"[2]; Well no.=4745, high concentration screen",107%
CC[C@@H](C(=O)[C@@H](C)[C@@H](O)[C@H](C)CCc1ccc(C)c(O)c1C(=O)O)[C@H]1O[C@](CC)([C@H]2CC[C@](O)(CC)[C@H](C)O2)C[C@@H]1C [Lasalocid A],remaining activity at 1.25 µM,"[1]; Well no.=3737, low concentration screen",95%
same,remaining activity at 3.75 µM,"[2]; Well no.=3737, high concentration screen",95.2%
CN1CCC(C(=O)c2cccc(NC(=O)c3c(F)cc(F)cc3F)n2)CC1 [Lasmiditan (hydrochloride)],remaining activity at 1.25 µM,"[1]; Well no.=8055, low concentration screen",97%
same,remaining activity at 3.75 µM,"[2]; Well no.=8055, high concentration screen",98.4%
CC(C)OC(=O)CCC/C=C\C[C@@H]1[C@@H](CC[C@@H](O)CCc2ccccc2)[C@H](O)C[C@@H]1O [Latanoprost],remaining activity at 1.25 µM,"[1]; Well no.=1769, low concentration screen",97.5%
same,remaining activity at 1.25 µM,"[1]; Well no.=6843, low concentration screen",100%
same,remaining activity at 3.75 µM,"[2]; Well no.=1769, high concentration screen",95.3%
same,remaining activity at 3.75 µM,"[2]; Well no.=6843, high concentration screen",98.9%
COc1ccc(C[C@H]2c3cc(OC)c(OC)cc3CC[N+]2(C)C)cc1OC [Laudanosine methiodide],remaining activity at 1.25 µM,"[1]; Well no.=3589, low concentration screen",103%
same,remaining activity at 3.75 µM,"[2]; Well no.=3589, high concentration screen",106%
CCCCCCCCCCCC(=O)O [Lauric acid],remaining activity at 1.25 µM,"[1]; Well no.=7169, low concentration screen",96.8%
same,remaining activity at 3.75 µM,"[2]; Well no.=7169, high concentration screen",98.4%
O=C(O)c1cc(N(Cc2ccccc2O)Cc2cc(O)ccc2O)ccc1O [Lavendustin A],remaining activity at 1.25 µM,"[1]; Well no.=3837, low concentration screen",90.9%
same,remaining activity at 3.75 µM,"[2]; Well no.=3837, high concentration screen",94.6%
O=C(O)c1cc(N(Cc2ccccc2O)Cc2ccccc2O)ccc1O [Lavendustin B],remaining activity at 1.25 µM,"[1]; Well no.=3807, low concentration screen",95.8%
same,remaining activity at 3.75 µM,"[2]; Well no.=3807, high concentration screen",98%
